US10729694B2 (AI Therapeutics, Inc., priority 2015, dated 2020)

How the values were obtained:
[1] = tested on: 456 kinases; type: binding
[2] = tested on: representative cancer cell line; test: Vacuolization and disruption of intracellular trafficking in cells; conditions: live cells treated with 500 nM, 24 h

## Cc1cccc(/C=N/Nc2cc(N3CCOCC3)nc(OCCc3ccccn3)n2)c1 [apilimod]
[1]
  binding to panel of 456 kinases: did not bind to any of the 456 kinases tested
[2]
  vacuolization: induces vacuolization
